Reference: patent US10538532B2, “Hepatitis B antiviral agents” (ENANTA PHARMACEUTICALS, INC., priority 2016, dated 2020)
Where two headings read alike, the source gives them in different places.

Test system: HBV
Experiment: HepAD38 antiviral assay: reduction of viral product accumulation (virion DNA by qPCR, HBsAg or HBeAg by ELISA)
Type: cell-based, hepatitis B virus
Details: read-out: HepAD38 EC50
Outline: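 EC50 values represent 50% reduction of viral product accumulation in lysates or supernatants relative to untreated controls, with virion DNA read by qPCR and HBsAg/HBeAg by ELISA. Measurements followed 5 days of treatment, or 8 days with compound renewed on d2 and d5. Cells were tetracycline-depleted HepAD38 at 35,000/well, dosed with a 1:200 dilution of DMSO stocks.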

[1] = Hepatitis B virus, HePAD38, 120 h, HepAD38 cells, five days after compound addition, concentration reducing viral product accumulation by 50% relative to no drug controls

O=C(Nc1cc(F)c(F)c(F)c1)c1ccc(Cl)c(S(=O)(=O)[C@H]2CC3CCC(C2)[C@@]3(O)Cn2cccn2)c1 [Example 261]
EC50 [1]: > 400 nM

NC(=O)OCC1=C[C@@H]2CCC(C1)C2S(=O)(=O)c1cc(C(=O)Nc2cc(F)c(F)c(F)c2)ccc1Cl (stereo partly drawn) [Example 262]
EC50 [1]: < 100 nM

O=C(Nc1cc(F)c(F)c(F)c1)c1ccc(Cl)c(S(=O)(=O)[C@H]2C3CC[C@H]2C[C@]2(COS(=O)O2)C3)c1 (stereo partly drawn) [Example 263]
EC50 [1]: < 100 nM

O=C(Nc1cc(F)c(F)c(F)c1)c1ccc(Cl)c(S(=O)(=O)[C@H]2CC3CCC(C2)[C@]3(O)CNC(=O)[C@@H]2CCCN2)c1 [Example 264]
EC50 [1]: < 100 nM

CC(C)[C@H](NC(=O)OC(C)(C)C)C(=O)OC[C@]1(O)CC2CC[C@@H](C1)[C@H]2S(=O)(=O)c1cc(C(=O)Nc2cc(F)c(F)c(F)c2)ccc1Cl [Example 265]
EC50 [1]: 100 to 400 nM

O=C(Nc1cc(F)c(F)c(F)c1)c1ccc(Cl)c(S(=O)(=O)C2CC3CCC(C2)N3)c1 (stereo not drawn) [Example 266]
EC50 (Hepatitis B virus, HePAD38, 120 h): 100 to 400 nM

CC[C@]1(O)CC2CC[C@@H](C1)[C@H]2S(=O)(=O)c1cc(C(=O)Nc2cc(F)c(F)c(F)c2)ccc1Cl [Example 268]
EC50 [1]: 100 to 400 nM

O=C(Nc1cc(F)c(F)c(F)c1)c1ccc(Cl)c(S(=O)(=O)[C@H]2C3CC[C@H]2C[C@@]2(CO2)C3)c1 [Example 269]
EC50 [1]: < 100 nM

C=CCOC[C@]1(O)CC2CC[C@@H](C1)[C@H]2S(=O)(=O)c1cc(C(=O)Nc2cc(F)c(F)c(F)c2)ccc1Cl [Example 270]
EC50 [1]: < 100 nM

O=C(Nc1cc(F)c(F)c(F)c1)c1ccc(Cl)c(S(=O)(=O)[C@H]2C3CC[C@H]2C[C@H](Cn2cccn2)C3)c1 [Example 311]
EC50 [1]: < 100 nM

O=C(Nc1cc(F)c(F)c(F)c1)c1ccc(Cl)c(S(=O)(=O)[C@H]2C3CC[C@H]2C[C@](O)(Cn2ccnc2)C3)c1 [Example 314]
EC50 [1]: < 100 nM

COc1ccc(COC[C@]2(O)CC3CC[C@@H](C2)[C@H]3S(=O)(=O)c2cc(C(=O)Nc3cc(F)c(F)c(F)c3)ccc2Cl)cc1 [Example 315]
EC50 [1]: < 100 nM

O=C(Nc1cc(F)c(F)c(F)c1)c1ccc(Cl)c(S(=O)(=O)[C@H]2C3CC[C@H]2C[C@](O)(COCc2ccncc2)C3)c1 [Example 316]
EC50 [1]: 100 to 400 nM

CNC(=O)OC[C@@H]1CC2CC[C@@H](C1)[C@H]2S(=O)(=O)c1cc(C(=O)Nc2cc(F)c(F)c(F)c2)ccc1Cl [Example 318]
EC50 [1]: < 100 nM

O=C(Nc1cc(F)c(F)c(F)c1)c1ccc(Cl)c(S(=O)(=O)[C@H]2C3CC[C@H]2C[C@](O)(COC/C=N/O)C3)c1 [Example 320]
EC50 [1]: < 100 nM

O=C(Nc1cc(F)c(F)c(F)c1)c1ccc(Cl)c(S(=O)(=O)[C@H]2CC3CCC(C2)[C@]3(O)c2ccc(F)cn2)c1 [Example 323]
EC50 [1]: < 100 nM

O=C(Nc1cc(F)c(F)c(F)c1)c1ccc(Cl)c(S(=O)(=O)[C@H]2C3CC[C@H]2C[C@](O)(COCCN2CCOCC2)C3)c1 [Example 325]
EC50 [1]: < 100 nM

O=C(Nc1cc(F)c(F)c(F)c1)c1ccc(Cl)c(S(=O)(=O)[C@H]2C3CC[C@H]2C[C@](O)(COC/C=C/c2ccncc2)C3)c1 [Example 326]
EC50 [1]: > 400 nM

O=C(Nc1cc(F)c(F)c(F)c1)c1ccc(Cl)c(S(=O)(=O)[C@H]2C3CC[C@H]2C[C@](O)(COCC(O)CO)C3)c1 (stereo partly drawn) [Example 327]
EC50 [1]: 100 to 400 nM

O=C(Nc1cc(F)c(F)c(F)c1)c1ccc(Cl)c(S(=O)(=O)[C@H]2C3CC[C@H]2C[C@](O)(COCC2CO2)C3)c1 (stereo partly drawn) [Example 328]
EC50 [1]: < 100 nM

O=C(Nc1cc(F)c(F)c(-n2cccn2)c1)c1ccc(Cl)c(S(=O)(=O)[C@H]2C3CC[C@H]2C[C@](O)(Cn2cccn2)C3)c1 [Example 333]
EC50 [1]: > 400 nM

COC(=O)NC[C@@H]1CC2CC[C@@H](C1)[C@H]2S(=O)(=O)c1cc(C(=O)Nc2cc(F)c(F)c(F)c2)ccc1Cl [Example 334]
EC50 [1]: < 100 nM

COC(=O)N(C)C[C@@H]1CC2CC[C@@H](C1)[C@H]2S(=O)(=O)c1cc(C(=O)Nc2cc(F)c(F)c(F)c2)ccc1Cl [Example 335]
EC50 [1]: < 100 nM

O=C(Nc1cc(F)c(F)c(F)c1)c1ccc(Cl)c(S(=O)(=O)[C@H]2CC3CCC(C2)[C@]3(O)CN2CCOCC2)c1 [Example 336]
EC50 [1]: < 100 nM

O=C(Nc1cc(F)c(F)c(F)c1)c1ccc(Cl)c(S(=O)(=O)[C@H]2C3CCC2C[C@H](CN2CCOCC2)C3)c1 [Example 337]
EC50 [1]: 100 to 400 nM

O=C(Nc1cc(F)c(F)c(F)c1)c1ccc(Cl)c(S(=O)(=O)[C@H]2C3CC[C@H]2C[C@]2(C3)OC(=O)[C@@H](O)[C@@H]2O)c1 [Example 338]
EC50 [1]: > 400 nM

COC(=O)[C@@H](NC[C@]1(O)C2CCC1C[C@@H](S(=O)(=O)c1cc(C(=O)Nc3cc(F)c(F)c(F)c3)ccc1Cl)C2)C(C)C [Example 339]
EC50 [1]: > 400 nM

CCOC(=O)[C@@H](NC[C@]1(O)C2CCC1C[C@@H](S(=O)(=O)c1cc(C(=O)Nc3cc(F)c(F)c(F)c3)ccc1Cl)C2)C(C)C [Example 340]
EC50 [1]: > 400 nM

CC(CO)NC[C@]1(O)C2CCC1C[C@@H](S(=O)(=O)c1cc(C(=O)Nc3cc(F)c(F)c(F)c3)ccc1Cl)C2 (stereo partly drawn) [Example 341]
EC50 [1]: 100 to 400 nM

CC(O)CNC[C@]1(O)C2CCC1C[C@@H](S(=O)(=O)c1cc(C(=O)Nc3cc(F)c(F)c(F)c3)ccc1Cl)C2 (stereo partly drawn) [Example 342]
EC50 [1]: < 100 nM

O=C(Nc1cc(F)c(F)c(F)c1)c1ccc(Cl)c(S(=O)(=O)[C@H]2CC3CCC(C2)[C@]3(O)C[N+]2([O-])C[C@@H](O)[C@H](O)C2)c1 [Example 343]
EC50 [1]: 100 to 400 nM

CC(C)[C@H](NC[C@]1(O)C2CCC1C[C@@H](S(=O)(=O)c1cc(C(=O)Nc3cc(F)c(F)c(F)c3)ccc1Cl)C2)C(=O)O [Example 344]
EC50 [1]: > 400 nM

CC(=O)NC[C@]1(O)C2CCC1C[C@@H](S(=O)(=O)c1cc(C(=O)Nc3cc(F)c(F)c(F)c3)ccc1Cl)C2 [Example 345]
EC50 [1]: < 100 nM

CC(=O)N1C[C@]2(OC1(C)C)C1CCC2C[C@@H](S(=O)(=O)c2cc(C(=O)Nc3cc(F)c(F)c(F)c3)ccc2Cl)C1 [Example 346]
EC50 [1]: < 100 nM

NC[C@]1(O)C2CCC1C[C@@H](S(=O)(=O)c1cc(C(=O)Nc3cc(F)c(F)c(F)c3)ccc1Cl)C2 [Example 347]
EC50 [1]: 100 to 400 nM

CC(C)(C)OC(=O)NCC(=O)NC[C@]1(O)C2CCC1C[C@@H](S(=O)(=O)c1cc(C(=O)Nc3cc(F)c(F)c(F)c3)ccc1Cl)C2 [Example 348]
EC50 [1]: < 100 nM

C[C@H](NC(=O)OC(C)(C)C)C(=O)NC[C@]1(O)C2CCC1C[C@@H](S(=O)(=O)c1cc(C(=O)Nc3cc(F)c(F)c(F)c3)ccc1Cl)C2 [Example 349]
EC50 [1]: < 100 nM

NCC(=O)NC[C@]1(O)C2CCC1C[C@@H](S(=O)(=O)c1cc(C(=O)Nc3cc(F)c(F)c(F)c3)ccc1Cl)C2 [Example 350]
EC50 [1]: 100 to 400 nM

C[C@H](N)C(=O)NC[C@]1(O)C2CCC1C[C@@H](S(=O)(=O)c1cc(C(=O)Nc3cc(F)c(F)c(F)c3)ccc1Cl)C2 [Example 351]
EC50 [1]: 100 to 400 nM

O=C(Nc1cc(F)c(F)c(F)c1)c1ccc(Cl)c(S(=O)(=O)[C@H]2CC3CCC(C2)[C@]3(O)C(O)CO)c1 (stereo partly drawn) [Example 352]
EC50 [1]: < 100 nM

NC(=O)O[C@]1(c2cccnc2)C2CCC1C[C@H](S(=O)(=O)c1cc(C(=O)Nc3cc(F)c(F)c(F)c3)ccc1Cl)C2 [Example 353]
EC50 [1]: < 100 nM

O=C(Nc1ccc(F)c(F)c1)c1ccc(Cl)c(S(=O)(=O)[C@H]2CC3CCC(C2)[C@H]3O)c1 [Example 354]
EC50 [1]: 100 to 400 nM

O=C(Nc1cc(F)c(F)c(F)c1)c1ccc(Cl)c(S(=O)(=O)C2C[C@@H]3O[C@H](C2)[C@@H](O)[C@H]3O)c1 (stereo partly drawn) [Example 355]
EC50 [1]: > 400 nM

O=C(Nc1cc(F)c(F)c(F)c1)c1ccc(Cl)c(S(=O)(=O)C2C[C@H]3CC[C@@H](C2)O3)c1 (stereo partly drawn) [Example 356]
EC50 [1]: 100 to 400 nM

O=C(Nc1cc(F)c(F)c(F)c1)c1ccc(Cl)c(S(=O)(=O)[C@H]2C[C@H]3CC[C@@H](C2)O3)c1 [Example 357]
EC50 [1]: 100 to 400 nM

CC(CO)NCCOC[C@]1(O)CC2CC[C@@H](C1)[C@H]2S(=O)(=O)c1cc(C(=O)Nc2cc(F)c(F)c(F)c2)ccc1Cl (stereo partly drawn) [Example 358]
EC50 [1]: 100 to 400 nM

O=C(Nc1cc(F)c(F)c(F)c1)c1ccc(Cl)c(S(=O)(=O)[C@H]2CC3CCC(C2)[C@@H]3N2CCOCC2)c1 [Example 359]
EC50 [1]: < 100 nM

O=C(Nc1cc(F)c(F)c(F)c1)c1ccc(Cl)c(S(=O)(=O)[C@H]2CC3CCC(C2)[C@@H]3O)c1 [Example 360]
EC50 (HepAD38 cells, five days after compound addition, concentration reducing viral product accumulation by 50% relative to no drug controls): < 100 nM

O=C(Nc1cc(F)c(F)c(F)c1)c1ccc(Cl)c(S(=O)(=O)[C@H]2CC3CCC(C2)[C@]3(O)CC(O)CO)c1 (stereo partly drawn) [Example 361]
EC50 [1]: < 100 nM

Cn1ccnc1[C@]1(O)C2CCC1C[C@@H](S(=O)(=O)c1cc(C(=O)Nc3cc(F)c(F)c(F)c3)ccc1Cl)C2 [Example 362]
EC50 [1]: < 100 nM

CC(C)(O)C(O)[C@]1(O)C2CCC1C[C@H](S(=O)(=O)c1cc(C(=O)Nc3cc(F)c(F)c(F)c3)ccc1Cl)C2 (stereo partly drawn) [Example 363]
EC50 [1]: < 100 nM

CC(C)(C)OC(=O)N[C@@H](Cc1ccccc1)C(=O)NC[C@]1(O)C2CCC1C[C@@H](S(=O)(=O)c1cc(C(=O)Nc3cc(F)c(F)c(F)c3)ccc1Cl)C2 [Example 364]
EC50 [1]: < 100 nM

CC(C)(C)OC(=O)N1CCC[C@H]1C(=O)NC[C@]1(O)C2CCC1C[C@@H](S(=O)(=O)c1cc(C(=O)Nc3cc(F)c(F)c(F)c3)ccc1Cl)C2 [Example 365]
EC50 [1]: < 100 nM

N[C@@H](Cc1ccccc1)C(=O)NC[C@]1(O)C2CCC1C[C@@H](S(=O)(=O)c1cc(C(=O)Nc3cc(F)c(F)c(F)c3)ccc1Cl)C2 [Example 366]
EC50 [1]: 100 to 400 nM
